# From patent publication US11485740B2, “Inhibitors of TRPC6” (Boehringer Ingelheim International GmbH, priority 2018, dated 2022)
# Molecular target: T1, human TRPC6 (Homo sapiens, UniProt Q9Y210)
# T1 construct: expressed in transfected cells
# T1 sequence (Q9Y210 1-931): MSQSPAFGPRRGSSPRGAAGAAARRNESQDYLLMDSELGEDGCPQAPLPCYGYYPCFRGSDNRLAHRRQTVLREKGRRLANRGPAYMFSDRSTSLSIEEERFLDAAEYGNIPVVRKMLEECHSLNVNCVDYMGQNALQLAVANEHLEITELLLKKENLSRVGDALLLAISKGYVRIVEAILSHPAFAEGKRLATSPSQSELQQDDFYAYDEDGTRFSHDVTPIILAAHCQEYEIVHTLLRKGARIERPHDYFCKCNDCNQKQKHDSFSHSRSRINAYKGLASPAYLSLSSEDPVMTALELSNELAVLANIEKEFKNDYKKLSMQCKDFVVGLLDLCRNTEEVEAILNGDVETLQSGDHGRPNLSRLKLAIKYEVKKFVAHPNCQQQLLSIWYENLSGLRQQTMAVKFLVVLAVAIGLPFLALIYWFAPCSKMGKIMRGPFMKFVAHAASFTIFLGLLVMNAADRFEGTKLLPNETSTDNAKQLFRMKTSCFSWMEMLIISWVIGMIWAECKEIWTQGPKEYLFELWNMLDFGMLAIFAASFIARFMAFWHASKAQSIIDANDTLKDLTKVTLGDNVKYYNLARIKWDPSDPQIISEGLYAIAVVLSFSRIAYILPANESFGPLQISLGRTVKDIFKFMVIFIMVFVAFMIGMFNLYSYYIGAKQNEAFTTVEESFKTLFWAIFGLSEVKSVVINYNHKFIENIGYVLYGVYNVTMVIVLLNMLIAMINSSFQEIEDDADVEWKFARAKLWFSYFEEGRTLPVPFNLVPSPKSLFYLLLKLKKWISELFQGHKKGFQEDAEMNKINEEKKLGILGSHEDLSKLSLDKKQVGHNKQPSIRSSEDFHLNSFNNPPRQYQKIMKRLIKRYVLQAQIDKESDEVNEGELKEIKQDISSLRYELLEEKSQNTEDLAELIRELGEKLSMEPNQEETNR
# Assay: High throughput screening assay: Fluo4/AM calcium fluorescence in HEK293/TREx cells expressing human TRPC6, agonist GSK1702934A (single concentration 10 μM and IC50 curves)
# Type: cell-based
# Settings: antagonist effect against human TRPC6, 7 concentrations 20 μM to 0.027 μM, triplicate
# Source text: High Throughput Screening Assay
# This screening assay measures human TRPC6 (transient receptor potential cation channel, subfamily C, member 6) ion channel activation via addition either of the commercially available DAG ligand analogue OAG (1-oleoyl-2-acetyl-sn-glycerol) or of the TRPC6 agonist 1-[1-(4,5,6,7,8-pentahydrocyclohepta[2,1-d]thiophen-2-ylcarbonyl)-4-piperidyl]-3-hydrobenzimidazol-2-one (GSK1702934A). The assay utilizes a fluorescent calcium sensor 4-(6-Acetoxymethoxy-2,7-difluoro-3-oxo-9-xanthenyl)-4′-methyl-2,2′-(ethylenedioxy)dianiline-N,N,N′,N′-tetraacetic acid tetrakis(acetoxymethyl) ester (Fluo4/AM) dye from Molecular Devices. Changes (increases) in intracellular calcium concentration as measured by the fluorescent signal increase provide a measurement of channel activity.
# The commercially available HEK293/TREx line (Invitrogen) was stably transfected with a human TRPC6 construct and screened by conventional calcium imaging to find clones with human TRPC6 expression following stimulation with 1 μg/ml tetracycline. These cells were maintained in the growth medium recommended by the manufacturer supplemented with 100 μg/ml hygromycin to promote retention of the human TRPC6 construct. After growing to near confluency, cells were plated at a density of ^˜35,000 cells/well in 384 well CellBind plates (Corning) in the presence of 1 μg/ml tetracycline, and allowed to grow for 20-30 hrs. A nearly confluent monolayer resulted. Growth media was removed from the wells and cells were then loaded with […] Fluo4/AM diluted in Ringer's Solution (6.5 g NaCl, 0.42 g KCl, 0.25 g CaCl2) and 0.2 g of sodium bicarbonate; pH 7.4) supplemented with 1% Pluronic F-127 to a final concentration of 0.5 μM and incubated for 60 min, at room temperature. Dye solution was then removed from the cells by inverting plates with a sharp flick, and replaced with 25 μl Ringer's. Following ^˜0.5 hour for recovery from loading, cells were assayed using the Hamamatsu FDSS 6000 system, which permitted illumination at 485 nm. Frames were acquired at a rate of 0.2 Hz. During the assay, the plates were continuously vortexed, with pipette mixing of wells following addition of each reagent. For the screening assay, 26 μl of a diluted compound stock (at 50 μM) was added to each well for 2 minutes following the collection of a short (4 frame) baseline. 13 μl of agonist solution consisting of 125 nM GSK1702934A diluted in high-Ca2+Ringer solution (containing 90 mM Ca2+) was then added to each well, achieving a final concentration of 20 mM Ca2+ and 10 μM test compound. Data was collected for ^˜3 minutes following addition of high Ca2+Ringer. The fluorescent intensity observed at a particular timepoint for each well was divided by the initial fluorescent intensity for that well and the overall response was determined by averaging the resulting fluorescent ratio of the last 4 frames acquired during the experiment excepting the final frame. Negative and Positive controls were included on each plate. Negative controls wells consisted of HEK293/TREx TRPC6 cells exposed to assay buffer and agonist solution, but no test compound. Positive control consisted of wells consisted of HEK293/TREx TRPC6 cells exposed to 25 μM 3-[(2-chlorophenoxy)methyl]phenyl piperidyl ketone (Chembridge) diluted in Ringer's solution and agonist solution. These controls defined zero percent and 100 percent block respectively, and intensity of each well was normalized to these values.
# Compounds were tested in triplicate at all concentrations. Standard software was used to fit IC50 curves.
row,SMILES,IC50 [µM]
1,"COc1cc(C(=O)N2CCC(c3nnc(N)cc3OC)CC2)ncc1-c1ccc(C(F)(F)F)nc1 [Compound 86, [4-(6-Amino-4-methoxy-pyridazin-3-yl)-piperidin-1-yl]-(4-methoxy-6′-trifluoromethyl-[3,3′]bipyridinyl-6-yl)-methanone]",0.66
2,"COc1cc(C(=O)N2CCN(c3ccc(N)nc3)CC2)ncc1-c1ccccc1 [Compound 68, 5-[4-(4-Methoxy-5-phenylpyridine-2-carbonyl)piperazin-1-yl]pyridin-2-amine]",0.039
3,"Cc1cc(C(=O)N2CCC(c3ccc(N)nn3)CC2)ccc1-c1ccc(C(F)(F)F)cc1 [Compound 63, [4-(6-Amino-pyridazin-3-yl)-piperidin-1-yl]-(2-methyl-4′-trifluoromethyl-biphenyl-4-yl)-methanone]",4.7
4,"CCc1cc(C(=O)N2CCC(c3ccc(N)nn3)CC2)ccc1-c1ccc(C(F)(F)F)cc1 [Compound 70, [4-(6-Amino-pyridazin-3-yl)-piperidin-1-yl]-(2-ethyl-4′-trifluoromethyl-biphenyl-4-yl)-methanone]",1.4
5,"COc1cc(C(=O)N2CCC(c3ccc(N)nn3)CC2)ncc1-c1ccc2c(c1)OCCO2 [Compound 22, [4-(6-Amino-pyridazin-3-yl)-piperidin-1-yl]-[5-(2,3-dihydro-benzo[l ,4]dioxin-6-yl)-4-methoxy-pyridin-2-yl]-methanone]",0.43
6,"COc1cc(C(=O)N2CCC(c3ccc(N)nn3)CC2)ccc1-c1ccc(O[C@@H](C)C2CC2)nc1 [Compound 78, [4-(6-Amino-pyridazin-3-yl)-piperidin-1-yl]-{4-[6-((S)-1-cyclopropyl-ethoxy)-pyridin-3-yl]-3-methoxy-phenyl}-methanone]",0.46
7,"COC[C@H]1CN(c2cnc(N)cc2OC)CCN1C(=O)c1cc(OC)c(-c2ccccc2)cn1 [Compound 100, [(R)-4-(6-Amino-4-methoxy-pyridin-3-yl)-2-methoxymethyl-piperazin-1-yl]-(4-methoxy-5-phenyl-pyridin-2-yl)-methanone]",0.23
8,"COc1cc(C(=O)N2C[C@@H]3C[C@H]2CN3c2ccc(N)nn2)ncc1-c1ccc(C(F)(F)F)cc1 [Compound 116, [(1S,4S)-5-(6-Amino-pyridazin-3-yl)-2,5-diaza-bicyclo[2.2.1]hept-2-yl]-[4-methoxy-5-(4-trifluoromethyl-phenyl)-pyridin-2-yl]-methanone]",0.19
9,"COc1nc(C(=O)N2CCC(c3ccc(N)nn3)CC2)ccc1-c1ccc(C(F)(F)F)cc1 [Compound 64, [4-(6-Amino-pyridazin-3-yl)-piperidin-1-yl]-[6-methoxy-5-(4-trifluoromethyl-phenyl)-pyridin-2-yl]-methanone]",1.3
10,"COC[C@H]1CN(c2cnc(N)cc2OC)CCN1C(=O)c1cc(OC)c(-c2ccc(F)cc2)cn1 [Compound 98, [(R)-4-(6-Amino-4-methoxy-pyridin-3-yl)-2-methoxymethyl-piperazin-1-yl]-[5-(4-fluoro-phenyl)-4-methoxy-pyridin-2-yl]-methanone]",0.2
11,COc1cc(C(=O)N2CCC(c3ccc(N)nn3)CC2)ncc1-c1ccc(OC(C)C)c(Cl)c1 [Compound 19],0.61
12,"COc1cc(C(=O)N2CCC(c3ccc(N)nn3)CC2)ncc1-c1ccc(OCC(F)(F)F)cc1 [Compound 29, [4-(6-Amino-pyridazin-3-yl)-piperidin-1-yl]-{4-methoxy-5-[4-(2,2,2-trifluoro-ethoxy)-phenyl]-pyridin-2-yl}-methanone]",0.11
13,"COc1cc(C(=O)N2CCC(c3ccc(N)nn3)CC2)ncc1-c1ccc(OCC(F)(F)F)nc1 [Compound 47, [4-(6-Amino-pyridazin-3-yl)-piperidin-1-yl]-[4-methoxy-6′-(2,2,2-trifluoro-ethoxy)-[3,3′]bipyridinyl-6-yl]-methanone]",0.2
14,"COc1cc(C(=O)N2CCC(c3ccc(N)nn3)CC2)ccc1-c1ccc(OCC2CC2(F)F)nc1 (stereo not shown) [Compound 76, [4-(6-Amino-pyridazin-3-yl)-piperidin-1-yl]{4-[6-(2,2-difluoro-cyclopropylmethoxy)-pyridin-3-yl]-3-methoxy-phenyl}-methanone]",0.38
15,"COc1cc(C(=O)N2CCC(c3ccc(N)nn3)CC2)ncc1-c1ccc(OC(F)(F)F)cc1 [Compound 31, [4-(6-Amino-pyridazin-3-yl)-piperidin-1-yl]-[4-methoxy-5-(4-trifluoromethoxy-phenyl)-pyridin-2-yl]-methanone]",0.094
16,"CC(C)Cc1ccc(-c2ccc(C(=O)N3CCC(c4ccc(N)nn4)CC3)cc2)cc1 [Compound 83, [4-(6-Amino-pyridazin-3-yl)-piperidin-1-yl]-(4′-isobutyl-biphenyl-4-yl)-methanone]",8.7
17,"COc1cc(C(=O)N2CCN(c3cnc(N)cc3OC)C[C@H]2CO)ncc1-c1ccc(C(F)(F)F)cc1 [Compound 101, [(S)-4-(6-Amino-4-methoxy-pyridin-3-yl)-2-hydroxymethyl-piperazin-1-yl]-[4-methoxy-5-(4-trifluoromethyl-phenyl)-pyridin-2-yl]-methanone]",0.39
18,"COc1cc(C(=O)N2CCC(c3ccc(N)nn3)CC2)ncc1-c1ccc(F)c(OCC(F)(F)F)c1 [Compound 15, [4-(6-Amino-pyridazin-3-yl)-piperidin-1-yl]-{5-(4-fluoro-3-(2,2,2-trifluoro-ethoxy)-phenyl]-4-methoxy-pyridin-2-yl}-methanone]",1.7
19,"COc1cc(C(=O)N2CCN(c3cnc(N)cc3OC)CC2)ncc1-c1ccc(C(F)(F)F)cc1 [Compound 103, [4-(6-Amino-4-methoxy-pyridin-3-yl)-piperazin-1-yl]-[4-methoxy-5-(4-trifluoromethyl-phenyl)-pyridin-2-yl]-methanone]",0.027
20,"Cc1cc(-c2ccc(C(F)(F)F)cc2)ccc1C(=O)N1CCC(c2ccc(N)nn2)CC1 [Compound 69, [4-(6-Amino-pyridazin-3-yl)-piperidin-1-yl]-(3-methyl-4′-trifluoromethyl-biphenyl-4-yl)-methanone]",0.36
21,"COc1cc(C(=O)N2CCC(c3ccc(N)nn3)CC2)ncc1-c1ccc(OC2CC2)cc1 [Compound 41, [4-(6-Amino-pyridazin-3-yl)-piperidin-1-yl]-[5-(4-cyclopropoxy-phenyl)-4-methoxy-pyridin-2-yl]-methanone]",0.13
22,COc1cc(C(=O)N2CCN(c3cnc(N)cc3OC)C[C@@H]2[C@H](C)O)ncc1-c1ccc(C(F)(F)F)cc1 [Compound 107],0.21
